From PubChem BioAssay (NCI) come the findings set out here.

Several values for one entry are separate records, joined by “and”; a condition that tells them apart may be missing. Equal entries are not always repeated.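 Assay format: 96-well plates, 48-hour exposure. Here, GI50 denotes the concentration required for 50% inhibition of growth. TGI denotes the concentration required for complete inhibition of growth.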

Some test systems named below: DU-145 prostate; HCT-15 colon; KM12 colon; MALME-3M melanoma; NCI-H23 lung; NCI/ADR-RES ovarian; OVCAR-8 ovarian; RPMI-8226 leukemia; SW-620 colon; T-47D breast.
What all share (experiment): NCI tumour cell line growth inhibition, 48 h

For `C#CCOc1ccc2ncnc(Nc3ccc(NC(=O)C=C)cc3)c2c1`, the GI50 in the assay on DU-145 prostate is 25.4 µM; in the assay on HCT-15 colon, 19.2 µM; in the assay on KM12 colon, 34.6 µM; with MALME-3M melanoma, 6.23 µM; with NCI-H23 lung, above 100 µM; in the assay on NCI/ADR-RES ovarian, above 100 µM. Further, the GI50 in the assay on OVCAR-8 ovarian was 45.8 µM; in the assay with RPMI-8226 leukemia, 2.63 µM; with SW-620 colon it was 6.3 µM; with T-47D breast, 3.53 µM. Further, the TGI with DU-145 prostate was above 100 µM; in the assay with HCT-15 colon, above 100 µM; in the assay on KM12 colon it was above 100 µM; with MALME-3M melanoma, 30.2 µM; in the assay on NCI-H23 lung, above 100 µM; in the assay with NCI/ADR-RES ovarian, above 100 µM. The TGI with OVCAR-8 ovarian is above 100 µM; with RPMI-8226 leukemia it was 7.44 µM; with SW-620 colon it was 33.1 µM; with T-47D breast, above 100 µM.

`O=[N+]([O-])c1cccc(C2CC(c3ccccc3)=Nc3ccccc3S2)c1` (configuration not stated): the GI50 in the assay with DU-145 prostate was 16.8 µM; in the assay with HCT-15 colon it was 4.84 µM; with KM12 colon, 6.32 µM; with MALME-3M melanoma, 17.9 µM; in the assay with NCI-H23 lung, 17.9 µM; in the assay on NCI/ADR-RES ovarian, 22.1 µM. Further, the GI50 in the assay on OVCAR-8 ovarian is 15.5 µM; with RPMI-8226 leukemia, 3.41 µM; with SW-620 colon it was 3.03 µM; in the assay with T-47D breast it was 16.6 µM. The TGI was 34.3 µM in the assay on DU-145 prostate; 18.7 µM in the assay with HCT-15 colon; 19.3 µM with KM12 colon; 46.1 µM with MALME-3M melanoma; 61.8 µM in the assay with NCI-H23 lung; above 100 µM with NCI/ADR-RES ovarian. Further, the TGI in the assay with OVCAR-8 ovarian was found to be 39.6 µM; in the assay with RPMI-8226 leukemia, 17.3 µM; in the assay on SW-620 colon it was 12 µM; with T-47D breast, 52.6 µM.

In the case of `CSc1ccc2c(c1)C(N1CCN(C)CC1)Cc1ccccc1S2` (configuration not stated), the GI50 was 2.04 µM in the assay on DU-145 prostate; 2.83 µM with HCT-15 colon; 1.83 µM in the assay with KM12 colon; 3.22 µM in the assay on NCI-H23 lung; 1.96 µM in the assay with NCI/ADR-RES ovarian; 2.07 µM in the assay with OVCAR-8 ovarian. Moreover, the GI50 in the assay on SW-620 colon was 1.69 µM; with T-47D breast it was 2.19 µM. In addition, the TGI is 31.4 µM and 4.38 µM with DU-145 prostate; 16.4 µM and 7.41 µM in the assay with HCT-15 colon; 7.49 µM and 3.55 µM in the assay on KM12 colon; 4.28 µM and 3.41 µM in the assay with MALME-3M melanoma; 28.8 µM and 11.8 µM with NCI-H23 lung; 19 µM and 4.58 µM with NCI/ADR-RES ovarian. Moreover, the TGI in the assay on OVCAR-8 ovarian is 22.8 µM and 5.35 µM; in the assay on RPMI-8226 leukemia, 4.12 µM and 4.58 µM; in the assay with SW-620 colon, 20.6 µM and 3.42 µM; with T-47D breast it was 42.5 µM and 5.17 µM.

On to `O=C(CC(Cl)=C(Cl)Cl)c1cccc(Cl)c1Cl`, for which the GI50 in the assay with DU-145 prostate is above 100 µM; in the assay on HCT-15 colon, 47.8 µM; with KM12 colon it was above 100 µM; in the assay on MALME-3M melanoma, above 100 µM; in the assay on NCI-H23 lung it was 63.2 µM; with NCI/ADR-RES ovarian, 85.1 µM. Further, the GI50 was above 100 µM with OVCAR-8 ovarian, 82.7 µM in the assay with RPMI-8226 leukemia, 88.7 µM in the assay with SW-620 colon and 42.5 µM in the assay on T-47D breast. For the same molecule, the TGI in the assay on DU-145 prostate, in the assay with HCT-15 colon, in the assay on KM12 colon, in the assay on MALME-3M melanoma, with NCI-H23 lung and with NCI/ADR-RES ovarian was above 100 µM each time. In addition, the TGI in the assay with OVCAR-8 ovarian, in the assay on RPMI-8226 leukemia, with SW-620 colon and in the assay with T-47D breast was above 100 µM in each case.

As to `N#CC1c2ccccc2C=CN1C(=O)N(c1ccccc1)c1ccccc1` (configuration not stated), the GI50 in the assay on DU-145 prostate is 3.04 µM; in the assay on HCT-15 colon, 2.51 µM; in the assay with KM12 colon, 6.38 µM; in the assay on MALME-3M melanoma, 1.61 µM; in the assay on NCI-H23 lung, 4.09 µM; with NCI/ADR-RES ovarian, 5.52 µM. For the same molecule, the GI50 was 13.3 µM in the assay on OVCAR-8 ovarian, 2.56 µM in the assay on RPMI-8226 leukemia, 2.27 µM in the assay on SW-620 colon and 1.87 µM with T-47D breast. Besides, the TGI came to 9.36 µM with DU-145 prostate; 6.93 µM with HCT-15 colon; 19.3 µM in the assay on KM12 colon; 3.55 µM in the assay with MALME-3M melanoma; 19.3 µM in the assay with NCI-H23 lung; 34 µM in the assay on NCI/ADR-RES ovarian. Further, the TGI was 54.1 µM with OVCAR-8 ovarian, 6.87 µM in the assay on RPMI-8226 leukemia, 5.3 µM in the assay on SW-620 colon and 4.45 µM in the assay with T-47D breast.

For `O=C1c2ccccc2C(=O)c2c(OCCOCCO)cccc21`, the TGI in the assay on DU-145 prostate, in the assay on HCT-15 colon, in the assay with KM12 colon, with MALME-3M melanoma, with NCI-H23 lung and with NCI/ADR-RES ovarian was above 100 µM throughout. Besides, the TGI with OVCAR-8 ovarian, in the assay on SW-620 colon and with T-47D breast was above 100 µM in each case.

For `O=C(COc1cccc(/C=C2\CSc3ccccc3C2=O)c1)Nc1nccs1`, the GI50 is 1.94 µM in the assay on DU-145 prostate; 2.17 µM with HCT-15 colon; 1.53 µM in the assay with KM12 colon; 1.54 µM in the assay on MALME-3M melanoma; 1.85 µM in the assay with NCI-H23 lung; 3.2 µM with NCI/ADR-RES ovarian. For the same molecule, the GI50 in the assay on OVCAR-8 ovarian is 3.08 µM; in the assay on RPMI-8226 leukemia, 0.653 µM; with SW-620 colon, 1.95 µM; in the assay with T-47D breast, 5.33 µM. Further, the TGI in the assay with DU-145 prostate was 3.99 µM; with HCT-15 colon, 5 µM; with KM12 colon it was 2.86 µM; in the assay on MALME-3M melanoma, 3.11 µM; with NCI-H23 lung it was 8.79 µM; in the assay on NCI/ADR-RES ovarian it was 11 µM. In addition, the TGI in the assay on OVCAR-8 ovarian was determined as 10.4 µM; in the assay on RPMI-8226 leukemia it was 2.79 µM; in the assay on SW-620 colon it was 4.52 µM; in the assay with T-47D breast it was 23.9 µM.

Regarding `O=C(Nc1nc2ccccc2s1)Nc1ccc([N+](=O)[O-])cc1Cl`, the GI50 with DU-145 prostate is 3.08 µM; with HCT-15 colon it was 3.05 µM; in the assay on KM12 colon, 2.82 µM; with MALME-3M melanoma, 2.82 µM; with NCI-H23 lung, 3.49 µM; with NCI/ADR-RES ovarian it was 2.99 µM. Moreover, the GI50 with OVCAR-8 ovarian was 2.13 µM; in the assay with RPMI-8226 leukemia, 2.19 µM; in the assay with SW-620 colon, 2.86 µM; with T-47D breast, 2.86 µM. Besides, the TGI with DU-145 prostate was 7.74 µM; in the assay on HCT-15 colon, 13 µM; in the assay with KM12 colon it was 8.48 µM; in the assay on MALME-3M melanoma, 11.1 µM; in the assay on NCI-H23 lung, 14.6 µM; in the assay with NCI/ADR-RES ovarian, 9.93 µM. In addition, the TGI was 4.99 µM with OVCAR-8 ovarian, above 21 µM in the assay on RPMI-8226 leukemia, 7.82 µM with SW-620 colon and 11.7 µM with T-47D breast.
